Laboratory results reported in patent US20190151283A1, “NON-STEROIDAL SELECTIVE GLUCOCORTICOID RECEPTOR AGONISTIC MODULATORS (SEGRAMs) AND USES THEREOF” (ASSOCIATION POUR LA RECHERCHE À L'IGBMC (ARI), priority 2017, published 2019).

Assays:
B6 male mice [1] = assay: Organ weights (thymus, spleen, adrenal gland, kidney) after three-month treatment; type: in vivo, mouse; details: s.c. 1 mg/kg daily, three months
Procedure: B6 male mice (8-week-old) were daily subjected for three months to a subcutaneous injection of either vehicle (NaCl 0.9%), Dex, CpdX, CpdX(eA), CpdX(eB), CpdX-D3, CpdX-D3(eA) or CpdX-D3(eB) (1 mg/kg body weight, diluted in vehicle). Following these treatments, four organs (thymus, spleen, adrenal gland and kidney) were harvested and weighted.

B6 male mice [2] = assay: Insulin level, insulin tolerance test and liver insulin signalling after three-month treatment; type: in vivo, mouse
Procedure: B6 male mice (8-week-old) were subjected daily for three months to a subcutaneous injection of either vehicle (NaCl 0.9%), Dex, CpdX, CpdX(eA), CpdX(eB), CpdX-D3, CpdX-D3(eA) or CpdX-D3(eB) (1 mg/kg body weight, diluted in vehicle). After three months, the blood was collected at 10 a.m. by retro-orbital puncture in lithium-heparin coated vials, and the plasmatic level of insulin was determined.
For the intraperitoneal insulin tolerance test (IPITT), mice were fasted for 6 hours before test. The blood glucose concentration was measured both before (T0) and during a one-hour period after insulin i.p. injection (0.75 U/kg body weight).
Following this three-month treatment, liver samples were harvested and lysed in the RIPA buffer (20 mM Tris pH 8, 150 mM NaCl, 10% glycerol, 1% NP-40 and 2 mM EDTA). Antibodies from Cell Signaling were used to assess by Western-Blotting the relative level of p-IRS1 (S318), IRS-1, p-AKT (S473) and AKT.

Balb/C mouse ears = assay: Calcipotriol (MC 903)-induced atopic dermatitis-like inflammation; type: in vivo
Procedure: To investigate the CpdX anti-inflammatory activity in vivo, Balb/C mouse ears were topically treated with calcipotriol (MC 903, a vitamin D3 analogue), in order to induce an atopic dermatitis (AD)-like inflammation (Li et al., 2006. Proc Natl Acad Sci USA. 103[…].
Mice were treated for 14 days with MC 903, and then for 8 extra days (until D22) with either MC 903 alone (control), MC 903 and Dex, MC 903 and CpdX, MC 903 and CpdX(eA), MC 903 and CpdX(eB), MC 903 and CpdX-D3, MC 903 and CpdX-D3(eA) and MC 903 and CpdX-D3(eB).
At D23, RNA transcripts were extracted from mouse ear skin samples and the transcripts of 7 cytokines (MMP13, COX2, IL-1β, IL-6, IL-10, IL-13 and TSLP) were analyzed by q-RT-PCR. Ear skin was harvested and histological (with H&E staining) and immunohistochemical (with anti-TSLP antibodies) analyses were carried out.

mice = assay: House dust mite (HDM)-induced asthma-like allergic lung inflammation; type: in vivo, mouse
Procedure: Glucocorticoids have been (Pearlman et al., 1997. Ann Allergy Asthma Immunol. 78(4):356-62), and are still, widely used in asthma therapy. In order to investigate the possible CpdX anti-inflammatory activity in vivo, mice were sensitized and challenged with either ovalbumin (OVA) or house dust mite (HDM) to induce an asthma-like allergic lung inflammation.
Mice were intranasally sensitized with 1 μg HDM from DO to D4, and further intranasally sensitized with 10 μg HDM on D14 and D21. Mice were then subdivided into eight groups, and on D29, D30 and D31, each mouse was again intranasally challenged with 1 μg HDM. The first seven groups received respectively 0.5 mg/kg of body weight of Dex, CpdX, CpdX(eA), CpdX(eB), CpdX-D3, CpdX-D3(eA) or CpdX-D3(eB), while the eighth group served as a control.
On D32, the airway responsiveness was invasively determined using a computer-controlled small animal ventilator (FlexVent® system, SCIREQ Technologies). Mice were anesthetized with xylazine (15 mg/kg, i.p.), followed 15 minutes later by an i.p. injection of pentobarbital sodium (54 mg/kg). An 18-gauge metal needle was then inserted into the trachea, each mouse was connected to the FlexVent® ventilator and quasi-sinusoidally ventilated with a tidal volume of 10 mL/kg at a frequency of 150 breaths/minute and a positive end-expiratory pressure of 2 cm H2O, in order to achieve a mean lung volume close to spontaneous breathing. After baseline measurement, mice were challenged for 10 seconds with a saline aerosol and, at 4.5-minute intervals, with 50 mg/mL methacholine. Airway resistance and elastance were expressed as cmH20·s/mL and cmH2O/mL respectively.
The lung allergic inflammation was assessed by examination of the bronchoalveolar lavage (BAL) fluid from each of these HDM-challenged mice. The total BAL cells, eosinophils, neutrophils, macrophages and lymphocytes were counted. RNA transcripts were extracted from lung samples. RNA transcripts of IL-1β, IL-6, IL-4, IL-5, IL-13, Eotaxin, CCL4, IL-10 and TNFα were analyzed by q-RT-PCR. Lung tissues were harvested and histological (with H&E staining) and immunohistochemical analyses were also carried out (with eosinophil-specific and neutrophil-specific antibodies).

Male mice (DBA-1 strain) = assay: Collagen-induced arthritis (CIA); type: in vivo, mouse
Procedure: Mice were treated with collagen to induce a Th17 rheumatoid arthritis-like inflammation as described by Inglis et al. (2007. Arthritis Res Ther. 9(5):R113) and Geboes et al. (2009. Arthritis Rheum. 60(2):390-5).
Male mice (DBA-1 strain) were subcutaneously-injected with 100 μg collagen per mouse on D0. The hind paw thickness at the ankle level was regularly measured with a caliper. When the ankle thickness had reached around 4 mm (T0, i.e., 30 to 50 days after the collagen injection on D0), mice were daily intraperitoneally-injected for 10 days (T0 to T10) with either vehicle (NaCl 0.9%), Dex, CpdX, CpdX(eA), CpdX(eB), CpdX-D3, CpdX-D3(eA) or CpdX-D3(eB) (1 mg/kg body weight diluted in NaCl 0.9%), and the hind paw thickness at the ankle level was daily measured with a caliper. Pictures of the hind paws were taken at days T0 and T10 (before and after the treatment with either Vehicle, Dex, CpdX, CpdX(eA), CpdX(eB), CpdX-D3, CpdX-D3(eA) or CpdX-D3(eB)), in order to assess the course of swelling.
RNA transcripts were extracted from whole hind paws of collagen-untreated and collagen-treated mice at T0 and T10. IL-1β, IL-6, IL-17a, IL-17f and TNFα transcripts were analyzed by q-RT-PCR.

spleen weight (B6 male mice [1]): not decreased | weight of the adrenal gland (B6 male mice [1]): increased
SMILES: [2H]C([2H])([2H])Oc1ccc(F)cc1C(C)(C)CC(O)(CNc1ccc2c(c1)COC2=O)C(F)(F)F (racemic) [CpdX-D3, 5-{4-[2-(methoxy-D3)-5-fluorophenyl]-2-hydroxy-4-methyl-2-(trifluoro-methyl)pentylamino}isobenzofuran-1(3H)-one]
thymus apoptosis / thymus found (B6 male mice [1]): did not result in any significant thymus apoptosis | insulin resistance (B6 male mice [2]; three months, conclusion): does not induce | phosphorylated insulin receptor substrate 1 (p-IRS1 S318) in liver extracts (B6 male mice [2]; western-blot, 'but not' = no decrease): but not | MC 903-induced ear skin inflammation, histological analysis (Balb/C mouse ears; compared to the control): decreased | MC 903-induced transcription of pro-inflammatory genes (MMP13, COX2, IL-1β, IL-6, IL-10, IL-13 and TSLP) (Balb/C mouse ears; ear extracts, q-RT-PCR, D23): repressed, as efficiently as Dex | expression of the TSLP lymphokine in MC 903-treated mouse epidermis (Balb/C mouse ears; immunohistochemistry, data not shown): similarly strongly decreased | MC 903-induced skin inflammation (Balb/C mouse ears; topical, 8 days co-treatment with MC 903): significantly decreased | number of neutrophils and macrophages in BAL (mice; 0.5 mg/kg on D29-D31, BAL on D32): No significant change | total number of BAL cells, eosinophils and lymphocytes (mice; 0.5 mg/kg on D29-D31, BAL on D32, vs control group): significantly decreased | eosinophils in lung, immunohistochemistry (mice; eosinophil-specific antibodies, data not shown): decreased | peribronchiolar and perivascular inflammatory cell infiltration (mice; histology of lung paraffin sections): strongly decreased | neutrophils in lung, immunohistochemistry (mice; neutrophil-specific antibody, data not shown): no significant change | expressions of IL-1β, IL-6, IL-4, IL-5, IL-13, Eotaxin and CCL4 (pro-inflammatory genes) in lung samples (mice; q-RT-PCR, D32): significantly and similarly decreased | expressions of IL-10 and TNFα in lung samples (mice; q-RT-PCR, data not shown): not affected | HDM-induced airway hyperresponsiveness (AHR), airway resistance and elastance (mice; response to methacholine 50 mg/mL, D32): similarly reduced | hind paw thickness at the ankle level (Male mice (DBA-1 strain); i.p. 1 mg/kg daily for 10 days (T0 to T10)): rapid decrease | RNA transcripts of the pro-inflammatory genes expressed in the hind paws (IL-1β, IL-6, IL-17a, IL-17f, TNFα) (Male mice (DBA-1 strain); q-RT-PCR, T10, 'but not' = not repressed): similarly repressed | hind paw thickness, difference compared to the Dex treatment (Male mice (DBA-1 strain); student t test, FIG. 17 legend): not significant
